Reference: PMC6992764 (Nature Communications, 2020)

Assays:
peritoneal macrophages = experiment: CCL2-induced pseudopodia protrusion of macrophages; type: cell-based, mice; settings: 25 µM, 1 h pre-incubation
Description: Peritoneal macrophages were isolated from mice, seeded in the 8-well glass-based dishes (Life Technologies) and incubated overnight at 37 °C to allow the cells to adhere. After serum starvation for 6 h, cells were stimulated with chemokine at a concentration of 100 ng mL^–1, then fixed with 4% paraformaldehyde (Wako) and permeabilized with 0.1% Triton X-100 (Wako) in PBS, followed by staining with phalloidin conjugated with Alexa Fluor 594 (Life Technologies). […] Tumor macrophages were isolated from collagenase digestion of tumor tissue as attached cells by washing non-adherent cells away and further culturing them in DMEM containing 10 nM M-CSF (BD Biosciences) and 10% serum. After co-culture with LLC tumor cells, confocal images were obtained using an SP5 confocal microscope (Leica Microsystems). Cells were classified as lamellipodial/round-shaped or filopodial based on their morphology and the ratio of each type in the visual field determined.

FROUNT-CCR5 interaction = biological target: T1, FROUNT-CCR5 interaction (Homo sapiens, UniProt Q9BW27); experiment: HTRF FROUNT-CCR5 interaction assay; type: binding
T1 construct: GST-fused FROUNT (FNT-C)
T1 sequence (Q9BW27 500-656 limits assumed): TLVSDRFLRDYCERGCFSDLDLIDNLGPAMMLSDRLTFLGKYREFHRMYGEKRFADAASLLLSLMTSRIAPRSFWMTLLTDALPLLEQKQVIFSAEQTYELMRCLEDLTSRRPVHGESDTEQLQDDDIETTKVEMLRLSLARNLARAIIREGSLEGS

p53-MDM2 interaction = p53-MDM2 interaction (Homo sapiens, UniProt Q00987); experiment: HTRF p53-MDM2 interaction counter assay; type: binding
Sequence of p53-MDM2 interaction (Q00987 whole entry): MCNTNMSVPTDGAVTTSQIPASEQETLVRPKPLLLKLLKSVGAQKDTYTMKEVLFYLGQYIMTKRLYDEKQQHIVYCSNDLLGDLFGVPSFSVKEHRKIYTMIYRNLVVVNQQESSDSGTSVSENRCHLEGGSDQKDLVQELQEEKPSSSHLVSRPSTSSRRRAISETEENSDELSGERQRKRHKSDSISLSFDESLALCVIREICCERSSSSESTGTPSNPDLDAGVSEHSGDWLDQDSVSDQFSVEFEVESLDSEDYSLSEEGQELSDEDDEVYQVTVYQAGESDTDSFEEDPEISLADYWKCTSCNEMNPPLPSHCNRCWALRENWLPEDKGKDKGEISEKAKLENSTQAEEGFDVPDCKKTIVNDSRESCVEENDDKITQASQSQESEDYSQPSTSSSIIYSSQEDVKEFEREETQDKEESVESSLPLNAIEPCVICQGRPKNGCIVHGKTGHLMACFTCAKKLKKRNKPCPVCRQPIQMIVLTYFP

[1] = biological target: T2, Full-length FROUNT protein (Homo sapiens, UniProt Q9BW27); experiment: Surface plasmon resonance binding to FROUNT; settings: SPR, concentration-dependent
T2 construct: made in house
T2 sequence (Q9BW27 1-656): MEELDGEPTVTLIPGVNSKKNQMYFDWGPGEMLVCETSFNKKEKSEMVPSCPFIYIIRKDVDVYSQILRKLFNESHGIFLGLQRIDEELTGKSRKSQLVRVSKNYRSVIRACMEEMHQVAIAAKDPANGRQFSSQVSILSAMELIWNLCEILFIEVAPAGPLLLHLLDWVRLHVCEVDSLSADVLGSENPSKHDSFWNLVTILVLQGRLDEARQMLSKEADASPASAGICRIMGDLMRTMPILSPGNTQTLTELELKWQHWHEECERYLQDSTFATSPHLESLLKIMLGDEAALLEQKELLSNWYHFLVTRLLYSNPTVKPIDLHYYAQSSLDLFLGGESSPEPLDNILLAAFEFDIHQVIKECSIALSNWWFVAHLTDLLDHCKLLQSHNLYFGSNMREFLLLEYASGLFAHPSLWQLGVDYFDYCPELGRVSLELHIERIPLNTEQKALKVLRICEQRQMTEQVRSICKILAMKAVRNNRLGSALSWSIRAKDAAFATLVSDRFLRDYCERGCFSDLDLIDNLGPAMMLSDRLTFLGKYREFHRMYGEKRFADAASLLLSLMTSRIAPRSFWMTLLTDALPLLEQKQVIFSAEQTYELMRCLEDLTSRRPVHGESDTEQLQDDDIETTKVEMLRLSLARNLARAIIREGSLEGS
Description: Interactions between FROUNT and library compounds were analyzed by surface plasmon resonance using a Biacore T100 (GE Healthcare). Full-length FROUNT protein or the FROUNT-binding region of CCR2 was immobilized on the CM5 sensor chip[56]. […] The resonance unit (RU) was measured during the binding and washing periods, and the binding kinetics were analyzed. Solvent correction with DMSO was performed using Biacore T100 evaluation software.

[2] = tested on: MMTV-PyVT spontaneous mammary tumor; experiment: MMTV-PyVT spontaneous mammary tumor model; type: in vivo, mice; settings: treatment from age of 17 weeks
B16 melanoma = experiment: B16 lung metastasis model; type: in vivo, C57BL/6 mice
Description: For evaluating subcutaneous tumor growth, LLC or B16 cells (5 × 10^5) in 50 μl PBS were inoculated subcutaneously into the right flanks of mice. Mice were euthanized when their tumor volumes reached 4000 mm^3. Tumor sizes were measured twice a week using calipers. Tumor volume was calculated using the following formula: Volume = (width)^2 × length/2. For the lung metastasis model, 1 × 10^6 LLC or B16 cells in 200 μl PBS were injected intravenously into mice. Mice were euthanized at day 10 after tumor injection for the LLC model and day 5–9 for the B16 model, and the lungs were isolated after perfusion with PBS via the left ventricle. Visible lung metastases were counted in the left lobe. The diameters of metastatic nodules in the lung lobe image were measured using ImageJ software. […] Anti-PD-1 antibody (clone J43, BioXcell) was injected intraperitoneally at a dose of 200 μg per mouse on day 5, 8, 14, and 18 after tumor inoculation. Mice were anesthetized and perfused with PBS and the left lungs were isolated. […] Fluorescence images derived from B16-DsRed cells and stained antibodies were obtained using an SP5 confocal microscope (Leica Microsystems). The F4/80 + macrophage number accumulated in and around the tumor nodule visualized by fluorescent protein was counted per nodule of similar sizes among the control and FROUNT-cKO, vehicle, or DSF-treated groups.

[3] = tested on: LLC tumor cells co-cultured with monocytes; experiment: Tumor cell co-culture with monocytes/macrophages; type: cell-based, mice; settings: nano-molar concentrations of DSF
Description: Monocytes were enriched from bone marrow cells by MACS negative selection for CD3, B220, Ly-6G, NK1.1, Ter119, CD49b, and c-kit. The percentage of Ly-6C^hi Ly-6G^− monocytes were >80%. Monocytes (1 × 10^5) and 100 DsRed^+ LLC tumor cells were co-cultured for 24 h. Proliferating tumor cell clusters containing more than 10 cells were enumerated by fluorescent microscopy. For flow cytometry analysis, cultured cells were harvested with trypsin-EDTA after 3 days of culture. Cells were stained with CD45-FITC (clone 102, BioLegend), then stained with annexin V-APC in binding buffer (BD biosciences). For detection of DNA synthesis, 5-ethynyl-2´-deoxyuridine (EdU) was added to the culture in the final hour of incubation. Intracellular EdU was stained using Click-iT® EdU Alexa Fluor™ 647 flow cytometry assay kits (Thermo Fisher Scientific) according to manufacturer’s instructions. Flow cytometry data were obtained by gating CD45(−) DsRed(+) cells and analyzing annexin V-positive cells or EdU-positive cells. Dead cells were excluded by Zombie Aqua staining (BioLegend). Stained cells were measured using Flow-Count™ Fluorospheres (Beckman Coulter) for the determination of absolute counts.

SMILES: CCN(CC)C(=S)SSC(=S)N(CC)CC [DSF, disulfiram]
- CCL2-induced pseudopodia protrusion (peritoneal macrophages): inhibited
- inhibition of FROUNT-CCR5 interaction (FROUNT-CCR5 interaction): specifically inhibited
- effect on p53-MDM2 interaction (p53-MDM2 interaction; HTRF): did not affect
- IC50 (p53-MDM2 interaction; HTRF titration assay): > 1000 nM
- binding to FROUNT protein [1]: directly binds
- growth of established tumors [2]: impaired
- lung metastatic nodule formation (B16 melanoma; B16 i.v., DSF 40 mg kg-1 i.p. daily): significantly reduced
- macrophage accumulation around tumor metastatic nodules (B16 melanoma; day 12 after B16 tumor cell injection, F4/80): diminished
- tumor cell growth induced by co-culture with monocytes [3]: inhibited
